Experimental data published in ChEMBL document CHEMBL3885861, “Open TG-GATES”.

Species on record: Rattus norvegicus
Assay: Open TG-GATES - Regimen: Single
Assay type: toxicity, organism-based, Sprague-Dawley
Parameters: regimen Single, gender Male, age 6 weeks
Settings: in vivo, po, 60 mg/kg, route gavage, dose level Middle; for APTT / Bas / Eos / Fbg / Hb / Ht / Lym / MCH / MCHC / MCV / Mono / Neu / PT / Plat / RBC / Ret / WBC: tissue Blood; for KIDNEY_L / KIDNEY_R / KIDNEY_TOTAL: tissue Kidney; for LIVER: tissue Liver; for A/G / ALP / ALT / AST / BUN / CRE / Ca / Cl / DBIL / GLC / IP / K / LDH / Na / PL / RALB / TBIL / TC / TG / TP / gamma-GTP: tissue Plasma

Cn1c(=O)c2[nH]cnc2n(C)c1=O.O [THEOPHYLLINE]
TERMINAL_BW (3 h): 215.5 g | APTT (3 h): 22.1 s | Bas (3 h): 0% | Eos (3 h): 1.2% | Fbg (3 h): 306 mg/dL | Hb (3 h): 12.6 g/dL | Ht (3 h): 38.3% | Lym (3 h): 68.6% | MCH (3 h): 20.2 pg | MCHC (3 h): 32.9% | MCV (3 h): 61.6 fL | Mono (3 h): 2.2% | Neu (3 h): 26.4% | PT (3 h): 15.4 s | Plat (3 h): 117 x10_4/uL | RBC (3 h): 622.6 x10_4/ul | Ret (3 h): 7.6% | WBC (3 h): 72.7 x10_2/uL | KIDNEY_L (3 h): 1 g | KIDNEY_R (3 h): 1 g | KIDNEY_TOTAL (3 h): 1.9 g | LIVER (3 h): 9.3 g | A/G (3 h): 1.3 | ALP (3 h): 1415.2 IU/L | ALT (3 h): 44.8 IU/L | AST (3 h): 80.2 IU/L | BUN (3 h): 13 mg/dL | CRE (3 h): 0.2 mg/dL | Ca (3 h): 10.2 mg/dL | Cl (3 h): 108 meq/L | DBIL (3 h): 0 mg/dL | GLC (3 h): 184.4 mg/dL | IP (3 h): 7.3 mg/dL | K (3 h): 3.5 meq/L | LDH (3 h): 184.2 IU/L | Na (3 h): 140.6 meq/L | PL (3 h): 120 mg/dL | RALB (3 h): 3.2 g/dL | TBIL (3 h): 0.022 mg/dL | TC (3 h): 67.8 mg/dL | TG (3 h): 33.6 mg/dL | TP (3 h): 5.6 g/dL | gamma-GTP (3 h): 1.6 IU/L | TERMINAL_BW (6 h): 215.8 g | APTT (6 h): 23.9 s | Bas (6 h): 0% | Eos (6 h): 0.8% | Fbg (6 h): 302.8 mg/dL | Hb (6 h): 13.1 g/dL | Ht (6 h): 40% | Lym (6 h): 75.2% | MCH (6 h): 20.9 pg | MCHC (6 h): 32.7% | MCV (6 h): 64 fL | Mono (6 h): 3.2% | Neu (6 h): 19.4% | PT (6 h): 15.6 s | Plat (6 h): 119.8 x10_4/uL | RBC (6 h): 626.8 x10_4/ul | Ret (6 h): 7.4% | WBC (6 h): 74.1 x10_2/uL | KIDNEY_L (6 h): 0.9 g | KIDNEY_R (6 h): 0.9 g | KIDNEY_TOTAL (6 h): 1.8 g | LIVER (6 h): 9 g | A/G (6 h): 1.2 | ALP (6 h): 1323.6 IU/L | ALT (6 h): 41.6 IU/L | AST (6 h): 86 IU/L | BUN (6 h): 11.6 mg/dL | CRE (6 h): 0.2 mg/dL | Ca (6 h): 10.6 mg/dL | Cl (6 h): 108.4 meq/L | DBIL (6 h): 0 mg/dL | GLC (6 h): 191 mg/dL | IP (6 h): 8.2 mg/dL | K (6 h): 3.5 meq/L | LDH (6 h): 212 IU/L | Na (6 h): 140.4 meq/L | PL (6 h): 126 mg/dL | RALB (6 h): 3.2 g/dL | TBIL (6 h): 0.018 mg/dL | TC (6 h): 70.2 mg/dL | TG (6 h): 36 mg/dL | TP (6 h): 5.7 g/dL | gamma-GTP (6 h): 1.2 IU/L | TERMINAL_BW (9 h): 211.1 g | APTT (9 h): 22.3 s | Bas (9 h): 0% | Eos (9 h): 0.8% | Fbg (9 h): 349.8 mg/dL | Hb (9 h): 12.9 g/dL | Ht (9 h): 38.8% | Lym (9 h): 73.2% | MCH (9 h): 20.6 pg | MCHC (9 h): 33.4% | MCV (9 h): 61.8 fL | Mono (9 h): 2% | Neu (9 h): 22% | PT (9 h): 15.8 s | Plat (9 h): 120.3 x10_4/uL | RBC (9 h): 630.2 x10_4/ul | Ret (9 h): 7.2% | WBC (9 h): 77.3 x10_2/uL | KIDNEY_L (9 h): 1 g | KIDNEY_R (9 h): 1 g | KIDNEY_TOTAL (9 h): 2 g | LIVER (9 h): 8.6 g | A/G (9 h): 1.2 | ALP (9 h): 1618.2 IU/L | ALT (9 h): 43.8 IU/L | AST (9 h): 87.2 IU/L | BUN (9 h): 9.8 mg/dL | CRE (9 h): 0.2 mg/dL | Ca (9 h): 10.7 mg/dL | Cl (9 h): 107.2 meq/L | DBIL (9 h): 0 mg/dL | GLC (9 h): 165.2 mg/dL | IP (9 h): 8.3 mg/dL | K (9 h): 3.7 meq/L | LDH (9 h): 168.2 IU/L | Na (9 h): 140.2 meq/L | PL (9 h): 121.6 mg/dL | RALB (9 h): 3.2 g/dL | TBIL (9 h): 0.022 mg/dL | TC (9 h): 73.8 mg/dL | TG (9 h): 23.8 mg/dL | TP (9 h): 5.9 g/dL | gamma-GTP (9 h): 1.2 IU/L | TERMINAL_BW (24 h): 225.6 g | APTT (24 h): 22.2 s | Bas (24 h): 0% | Eos (24 h): 0.8% | Fbg (24 h): 293 mg/dL | Hb (24 h): 13.9 g/dL | Ht (24 h): 41.4% | Lym (24 h): 76.2% | MCH (24 h): 20.6 pg | MCHC (24 h): 33.6% | MCV (24 h): 61.2 fL | Mono (24 h): 3% | Neu (24 h): 18.6% | PT (24 h): 16 s | Plat (24 h): 115 x10_4/uL | RBC (24 h): 676.8 x10_4/ul | Ret (24 h): 6.5% | WBC (24 h): 97.8 x10_2/uL | KIDNEY_L (24 h): 1 g | KIDNEY_R (24 h): 1 g | KIDNEY_TOTAL (24 h): 2 g | LIVER (24 h): 10.1 g | A/G (24 h): 1.2 | ALP (24 h): 1662.4 IU/L | ALT (24 h): 42.8 IU/L | AST (24 h): 73.4 IU/L | BUN (24 h): 15.6 mg/dL | CRE (24 h): 0.2 mg/dL | Ca (24 h): 10.9 mg/dL | Cl (24 h): 106 meq/L | DBIL (24 h): 0.006 mg/dL | GLC (24 h): 191.2 mg/dL | IP (24 h): 8.8 mg/dL | K (24 h): 4.1 meq/L | LDH (24 h): 168.4 IU/L | Na (24 h): 142.2 meq/L | PL (24 h): 135.4 mg/dL | RALB (24 h): 3 g/dL | TBIL (24 h): 0.006 mg/dL | TC (24 h): 78.2 mg/dL | TG (24 h): 60.6 mg/dL | TP (24 h): 5.5 g/dL | gamma-GTP (24 h): 1.4 IU/L
